# Test results as given in US11786527B2, “Pharmaceutical composition and preparation method therefor and uses thereof” (WUXI SHUANGLIANG BIOTECHNOLOGY CO., LTD., priority 2018, dated 2023).
# Key:
# [1] = Solubility and solution stability of C-005 and its salts; format: physicochemical
# WT EGFR = WT EGFR (Homo sapiens, UniProt P00533); details: cited from earlier work
# [2] = system: activated form and resistant mutant form of EGFR; details: cited from earlier work
# WT EGFR, sequence (P00533 25-1210): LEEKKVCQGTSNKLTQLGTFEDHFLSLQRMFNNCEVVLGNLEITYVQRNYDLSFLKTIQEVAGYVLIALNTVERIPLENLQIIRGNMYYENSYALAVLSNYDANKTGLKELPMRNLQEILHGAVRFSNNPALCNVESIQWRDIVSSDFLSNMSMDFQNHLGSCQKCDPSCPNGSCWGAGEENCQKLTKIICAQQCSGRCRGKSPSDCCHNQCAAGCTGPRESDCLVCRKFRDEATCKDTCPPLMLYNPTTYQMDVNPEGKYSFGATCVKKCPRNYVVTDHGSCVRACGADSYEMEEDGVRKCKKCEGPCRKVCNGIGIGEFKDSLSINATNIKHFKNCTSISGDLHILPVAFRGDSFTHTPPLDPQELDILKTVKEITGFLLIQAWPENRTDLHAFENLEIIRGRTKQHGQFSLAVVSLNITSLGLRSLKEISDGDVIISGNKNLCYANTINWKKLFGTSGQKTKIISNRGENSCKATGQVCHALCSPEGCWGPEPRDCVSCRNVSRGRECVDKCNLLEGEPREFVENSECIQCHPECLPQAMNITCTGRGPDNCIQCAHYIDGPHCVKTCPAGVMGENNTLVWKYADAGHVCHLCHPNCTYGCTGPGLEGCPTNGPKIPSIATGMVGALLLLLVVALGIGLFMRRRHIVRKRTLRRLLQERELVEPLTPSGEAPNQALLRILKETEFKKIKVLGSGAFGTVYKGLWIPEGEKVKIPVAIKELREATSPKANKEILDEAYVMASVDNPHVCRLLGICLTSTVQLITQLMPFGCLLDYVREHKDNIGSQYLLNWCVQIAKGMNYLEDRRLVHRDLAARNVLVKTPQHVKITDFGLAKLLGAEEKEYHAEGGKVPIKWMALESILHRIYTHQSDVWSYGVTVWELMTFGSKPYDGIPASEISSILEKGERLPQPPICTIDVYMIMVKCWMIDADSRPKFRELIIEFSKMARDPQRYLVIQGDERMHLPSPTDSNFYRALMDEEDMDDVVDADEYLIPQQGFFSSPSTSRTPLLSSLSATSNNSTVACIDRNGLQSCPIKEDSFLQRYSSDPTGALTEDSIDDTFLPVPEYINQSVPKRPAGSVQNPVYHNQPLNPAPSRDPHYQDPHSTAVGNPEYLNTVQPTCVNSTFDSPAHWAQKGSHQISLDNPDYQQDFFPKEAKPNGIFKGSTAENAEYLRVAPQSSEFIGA
SMILES,"Time period for which the solution is stable and does not precipitate ([1]; solution of the citrate, once formed)",Solubility compared with C-005 in the free-base form ([1]; under the pH conditions in intestine),Inhibitory activity against WT EGFR (WT EGFR),Inhibition of activated form and resistant mutant form of EGFR [2],pH dependence of solubility (and permeability) [1],Solubility in simulated gastric fluid compared to the solubility in aqueous solution ([1]; simulated gastric fluid (pH 1.2) vs aqueous solution (pH 7))
"C=CC(=O)Nc1cc(Nc2nccc(-c3cn(C)c4cccnc34)n2)c(OC)cc1N(C)CCN(C)C.O=C(O)CC(O)(CC(=O)O)C(=O)O [C-005 citrate, N-(2-((2-(dimethylamino)ethyl)(methyl)amino)-4-methoxy-5-((4-(1-methyl-1H-pyrrolo[3,2-b]pyridin-3-yl)pyrimidin-2-yl)amino)phenyl)acrylamide citrate]",at least 24 hours,significantly higher,–,–,–,–
"C=CC(=O)Nc1cc(Nc2nccc(-c3cn(C)c4cccnc34)n2)c(OC)cc1N(C)CCN(C)C [C-005, N-(2-((2-(dimethylamino)ethyl)(methyl)amino)-4-methoxy-5-((4-(1-methyl-1H-pyrrolo[3,2-b]pyridin-3-yl)pyrimidin-2-yl)amino)phenyl)acrylamide]",–,–,relatively low inhibitory activity,inhibit both activated form and resistant mutant form of EGFR,significant pH-dependent solubility and permeability,approximately 40 times
